The results in this text go back to ChEMBL document CHEMBL1201862, “PubChem BioAssay data set” (2004).

Test in all cases: NCI-60 cell line screen, 48 h
Assay [1] has as its system M19-MEL.
The test system of assay [2] is SNB-78.
Assay [3] concerns HOP-18.
For assay [4], the system named is KM-20L2.
The subject of assay [5] is Hs-578T.
The subject of assay [6] is BT-549.
Assay [7] has as its system MDA-N.
Assay [8] has as its system T47D.
Assay [9] concerns RXF 631.

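In this assay, cells in 96-well plates receive the compound at five concentrations for 48 hours. Endpoints are linearly interpolated between the surrounding concentrations. The concentration for 50% growth inhibition is given as GI50.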 Activity calls are given as the source filed them. Rule as the data show it: active = GI50 up to about 1.1 µM and inactive = higher. Bridge positions count the residues as written; N and C are the ends. Where a SMILES comes first, the peptide text is derived from it. Square brackets hold non-standard residues; d marks the D form. Peptide text beside a SMILES is read from it. I, II: the chains in the order shown. The star is where a group is joined. * marks the point of attachment. Quinoxaline2carbonyl = O=C(c1cnc2ccccc2n1)*; NMeV = CN[CH](C(=O)O)C(C)C; NMeC = CN[CH](CS)C(=O)O; Boc = CC(C)(C)OC(=O)*; nBu = CCCC*

Consider `COC1/C=C\C=C(/C)C(=O)NC2=CC(=O)C=C(C2=O)C(OC)C(C)CC(OC)C(OC)C(C)/C=C(/C)C1OC(N)=O` (centres undefined), for which the GI50 was 2.2 µM (inactive) in assay [1], 2.14 µM (inactive) in assay [2], 0.29 µM (active) in [3] and 3.2 µM (inactive) in assay [4].
Taken in the same sequence, the figures for `CCC1=C(C(C)=O)[C@@H]2CCCCC[C@@H](C(=O)OC)C2C1=O` (some centres undefined) were > 100 µM (inactive), > 100 µM (inactive), 57.9 µM (inactive) and > 100 µM (inactive).
Turning to `COc1ccc(C(=O)OCC2OC(n3cnc4c(=S)nc[nH]c43)C(OC(=O)c3ccc(OC)cc3)C2OC(=O)c2ccc(OC)cc2)cc1` (centres undefined), the GI50 was > 100 µM (inactive) in assay [1] and 8.47 µM (inactive) in assay [4].
`O=C(O)CSc1ccc2nc3ccccc3c(O)c2c1`: the GI50 in assay [1], in assay [3] and in assay [4] was > 100 µM (inactive) each time.
Consider `Cc1ccc(S(=O)(=O)C2=c3ncccc3=C3C(=O)c4ccccc4C(=O)C32)cc1` (centres undefined), for which the GI50 was 22.6 µM (inactive) in assay [5]; < 0.01 µM (active) in assay [1]; > 100 µM (inactive) in assay [2]; 39.8 µM (inactive) in assay [6]; > 100 µM (inactive) in [3]; > 100 µM (inactive) in assay [7]. Also, the GI50 in assay [8] is 68.4 µM (inactive).
As to `COc1ccc(-c2ccc(CC(=O)O)cc2)cc1OC`, the GI50 in assay [1], in assay [2] and in assay [4] was > 100 µM (inactive) in each case.
With `CCOC(=O)c1ccc(O)cc1` [ETHYLPARABEN], the GI50 in [1], in assay [2], in assay [9] and in assay [4] was > 100 µM (inactive) in each case.
As to `CCOC(=O)C(CC(C)C)NC(=O)C(Cc1ccc(N(CCCl)CCCl)cc1)NC(C)=O` (centres undefined), the GI50 in [5] is 5.12 µM (inactive); in assay [1], 3.84 µM (inactive); in assay [2], 3.93 µM (inactive); in [6], 6.67 µM (inactive); in assay [3], 14 µM (inactive); in [7], 2.67 µM (inactive). The figures for the GI50 in assay [8] and in [4] were 2.17 µM (inactive) and 20 µM (inactive), respectively.
Consider `COC(=O)c1nc(-c2ccc3c(n2)C(=O)C(=N)C(OC)=C3O)c(N)c(-c2ccc(OC)c(OC)c2O)c1C`, for which the GI50 was 0.254 µM (active) in assay [1], 2.35 µM (inactive) in assay [2], 2.03 µM (inactive) in [3] and 2.24 µM (inactive) in assay [4].
The like results for `CCCSCC(P(=O)(O)O)P(=O)(O)O.NC1CCCCC1` were, in that order, > 100 µM (inactive), > 100 µM (inactive), > 100 µM (inactive) and > 100 µM (inactive).
Turning to `CCOC(=O)C(=O)Nc1cc(Cl)ccc1Cl`, the GI50 in [1], in assay [3] and in assay [4] was > 100 µM (inactive) throughout.
In the case of `O=S(O)c1cc(Cl)c(O)c(Cl)c1`, the GI50 in assay [1], in [2] and in assay [9] was > 100 µM (inactive) in each case.
For the compound `COc1cc2c(cc1OC)C(=O)Cc1ccc3c(c1CNCC2)OCO3`, the GI50 in assay [1], in [2], in assay [3] and in assay [4] was > 100 µM (inactive) in each case.
Regarding `CCC1(O)C[C@H]2CN(CCCc3c([nH]c4ccccc34)[C@@](C(=O)OC)(c3cc4c(cc3OC)N(C)C3[C@](O)(C(=O)OC)[C@H](OC(C)=O)[C@]5(CC)C=CCN6CC[C@]43[C@H]65)C2)C1` (some centres undefined), the GI50 in assay [1] was 0.902 µM (active); in assay [2] it was 0.543 µM (active); in assay [3] it was 0.146 µM (active); in assay [4] it was 0.298 µM (active).
The like results for `CN(C)c1ccc(/C=C/C(=O)C(C)(C)C)cc1Br` were, in that order, 19.8 µM (inactive), 44.2 µM (inactive), > 100 µM (inactive) and 25.6 µM (inactive).
The like results for `CSCC[C@@H]1C(=O)N(C)[C@H](C(C)(C)C)N1C(=O)c1ccccc1` were, in that order, > 100 µM (inactive), > 100 µM (inactive), > 100 µM (inactive) and > 100 µM (inactive).
Turning to `CC1NC(=O)C(NC(=O)c2cnc3ccccc3n2)COC(=O)C(C(C)C)N(C)C(=O)C2CSSCC(C(=O)N(C)C(C(C)C)C(=O)OCC(NC(=O)c3cnc4ccccc4n3)C(=O)NC(C)C(=O)N2C)N(C)C1=O` (centres undefined) (I: Quinoxaline2carbonyl-SA[NMeC][NMeV] / II: Quinoxaline2carbonyl-SA[NMeC][NMeV]; ester I:1-II:C, I:C-II:1; disulfide I:3-II:3; configuration not given here), the GI50 in assay [5], in assay [6], in assay [7] and in [8] was < 0.01 µM (active) in each case.
Turning to `COCCOCCOCCOc1ccc(C(C#N)N(CCc2ccccc2)C(=O)c2cc(C(=O)N(CCc3ccccc3)C(C#N)c3ccc(OCCOCCOCCOC)cc3)cc(C(=O)N(CCc3ccccc3)C(C#N)c3ccc(OCCOCCOCCOC)cc3)c2)cc1` (centres undefined), the GI50 was 54.3 µM (inactive) in [5], > 100 µM (inactive) in [6], > 100 µM (inactive) in assay [7] and > 100 µM (inactive) in assay [8].
On to `CCCCCC(=O)OCC1(CO)C/C(=C\CC(C(C)C)C(C)C)C(=O)O1` (centres undefined), for which the GI50 was 24.5 µM (inactive) in assay [5], > 100 µM (inactive) in assay [6], > 100 µM (inactive) in assay [7] and > 100 µM (inactive) in [8].
In the case of `CO[C@@]12[C@H](COC(N)=O)C3=C(C(=O)C(C)=C(N)C3=O)N1C[C@@H]1N[C@@H]12` [MITOMYCIN], the GI50 in [5] is 3.22 µM (inactive); in [6] it was 1.75 µM (inactive); in assay [3], 1.1 µM (active); in [4], 1.3 µM (inactive).
With `COc1ccccc1/N=N/c1c(-c2ccccc2)nn(C(=O)CC(=O)Nc2ccccc2Cl)c1-c1ccccc1`, the GI50 in [1], in assay [2], in assay [3] and in [4] was > 100 µM (inactive) throughout.
With `CCCNC(=O)Nc1c([N+](=O)[O-])cc(C(F)(F)F)cc1[N+](=O)[O-]`, the GI50 in assay [1] was 42.8 µM (inactive); in assay [2], 82.8 µM (inactive); in assay [9], 12.7 µM (inactive); in assay [4], 26.2 µM (inactive).
As for `N#CC1=C(N)n2c(s/c(=C\c3ccc(Cl)cc3)c2=O)=C(c2nc3ccccc3[nH]2)C1c1ccc(Cl)cc1` (centres undefined), the GI50 in assay [1] was 3.04 µM (inactive); in assay [4] it was 2.21 µM (inactive).
On to `COc1ccc(CC2Cc3ccccc3CCN2)cc1OC` (centres undefined), for which the GI50 in assay [5] is 23.8 µM (inactive); in [6], > 50 µM (inactive); in [7] it was > 50 µM (inactive); in [8], 46.5 µM (inactive).
Consider `CCCCCCCCCCCCCCCCCCC1=C(O)C(=O)C=C(OC)C1=O`, for which the GI50 in assay [1] is 39.1 µM (inactive); in assay [2], 71.9 µM (inactive); in assay [3] it was 43 µM (inactive); in [4], 42.9 µM (inactive).
Turning to `Cc1ccc2[nH]c3c(C)c4cc[n+](C)cc4c(C)c3c2c1`, the GI50 in assay [5] was 0.232 µM (active); in assay [2], 0.787 µM (active); in assay [6], 0.753 µM (active); in assay [3], 9.66 µM (inactive); in [7] it was 4.03 µM (inactive); in assay [8], 1.55 µM (inactive). Further, in assay [4], the GI50 is 3.96 µM (inactive).
Regarding `CC(=C(C(N)=O)C(N)=O)C1C=C(c2cccs2)CC(c2ccc(Cl)cc2)=C1O` (centres undefined), the GI50 is > 100 µM (inactive) in [5], 16.1 µM (inactive) in assay [6], 35.1 µM (inactive) in assay [7] and 9.84 µM (inactive) in assay [8].
Taken in the same sequence, the figures for `CC(=O)Oc1ccccc1/C=C/C(=O)/C=C/c1ccccc1OC(C)=O` were 3.69 µM (inactive), 1.73 µM (inactive), 1.91 µM (inactive) and 3.49 µM (inactive).
Taken in the same sequence, the figures for `Cc1ccc(SCC(CF)OC(C)n2cnc3c(O)nc(N)nc32)cc1` (centres undefined) were > 100 µM (inactive), 19.8 µM (inactive), > 100 µM (inactive) and 49.1 µM (inactive).
With `CC1C(c2ccc(N(C)C)cc2)c2cc3c(cc2OC1N1CCCC1)OCO3` (centres undefined), the GI50 in assay [5] was 28.8 µM (inactive); in assay [6], 38.2 µM (inactive); in assay [7], 14.6 µM (inactive); in assay [8], 54.3 µM (inactive).
Consider `N#CC(Nc1cccc(C(F)(F)F)c1)c1ccccc1C(F)(F)F` (centres undefined), for which the GI50 in [1] is 7.23 µM (inactive); in [2] it was 20.1 µM (inactive); in [3], 13.5 µM (inactive); in [4] it was 13.8 µM (inactive).
Consider `C1=CN2C[n+]3ccc4ccccc4c3N=C2c2ccccc21`, for which the GI50 in assay [5] was 3.92 µM (inactive); in assay [6], 7.98 µM (inactive); in assay [7], 2.26 µM (inactive); in assay [8], 0.671 µM (active).
`NCCSc1nc(N)c2ncn(C3OC(CO)C(O)C3O)c2n1` (centres undefined): the GI50 in [1], in assay [2], in assay [3] and in assay [4] was > 100 µM (inactive) each time.
Turning to `CCCCOc1ccc(CC(NC(=O)OC(C)(C)C)C(=O)NC(C)C(=O)NC(Cc2ccccc2)C(=O)NCC(N)=O)cc1` (centres undefined) (Boc-Y(nBu)AFG-NH2; configuration not given here), the GI50 was > 100 µM (inactive) in assay [5], > 100 µM (inactive) in assay [6], 61.9 µM (inactive) in assay [7] and > 100 µM (inactive) in [8].
On to `ClC1CCC2OOC1O2` (centres undefined), for which the GI50 in assay [1], in assay [2] and in assay [4] was > 100 µM (inactive) throughout.
For `NC(Cc1cccc([N+](=O)[O-])c1)C(=O)O` (centres undefined), the GI50 in [5], in assay [6], in [7] and in assay [8] was > 100 µM (inactive) each time.
Turning to `CCCCCCCC(=O)OC[C@@H](C[As](=O)(O)O)OC(=O)CCCCCCC`, the GI50 in assay [1] was 14.9 µM (inactive); in [2], 10.4 µM (inactive); in [3] it was 18.2 µM (inactive); in [4], 16.9 µM (inactive).
